“Also recorded” adds a separate entry of the source. Ends that are not written are not given here.
Tests used:
Format in all cases: in vivo
LOXL2 = LOXL2 ELISA on liver extracts; conditions: 3 months post unique injection in subcutaneous adipose tissue, DIO male mice, n=4
Description: (§1) LOXL2 is the enzyme promoting the development of fibrotic lesions by favoring the polymerization of collagen and FABP4 is a protein involved in lipid metabolism whose level increases with increasing lipid deposition in the liver.
For LOXL2 and GLP-1 measurements, the two commercially available kits: Lysyl Oxydase Like Protein 2 (LOXL2), Enzyme-linked Immunosorbent Assay Kit, Mus musculus, SEF552Mu, Cloud Clone Corp;
(§2) For the measurements on the liver extracts, the same kit for LOXL2 was used and for FABP4, the commercial kit used was the Elisa kit for Fatty Acid Binding Protein 4, Adipocyte (FABP4), SEB693Mu, Cloud Clone Corp.

[1] = tested on: fibrotic depots in the liver; test: Transmitted electron microscopy of liver sections for fibrotic depots; conditions: DIO-NASH mice, 3 months after injection in subcutaneous adipose tissue
Experimental: For the electron microscopy imaging on the liver extracts, the samples were immersed in glutaraldehyde (2.5%) and paraformaldehyde (2.5%) in cacodylate buffer (0.1 M, pH 7.4). The samples were post-fixed in 1% osmium tetroxide, dehydrated through graded alcohol (50, 70, 90, and 100%) and propylene oxide for 30 minutes each, and embedded in Epon 812. Semithin sections were cut at 2 μm on an ultra microtome (Leica Ultracut UCT) and ultrathin sections were cut at 70 nm and contrasted with uranyl acetate and lead citrate and examined at 70 kv with a Morgagni 268D electron microscope. Images were captured digitally by Mega View III camera (Soft Imaging System).

[2] = tested on: fatty acid synthase (Fasn); test: Hepatic expression of de novo lipogenesis gene Fasn (q-PCR); conditions: 11 days post injection in the adipose tissue; DIO male mice; vs control
Description: AdipoRed Staining of Liver Sections

FABP4 = FABP4 ELISA on liver extracts; conditions: 3 months after single injection, DIO male mice
Description: as §1, §2

[3] = Glucose tolerance test (GTT) in diet induced obese mice; conditions: fasting male DIO mice, single injection at day 0; subcutaneous glucose bolus; AUC D-5 vs D+6
Experimental: These are results obtained from series of glucose tolerance test (GTT) and data from two-time points namely 30 minutes and 120 minutes were used to generate these curves for both control and PATAD treated diet induced obese (DIO) and diabetic wild type male C57/B6 mice (control).
For this study, mice were on a C57/BL6 genetic background. All animals were housed in a temperature and humidity controlled facility, with a 12 h-light/12 h-dark cycle fed during the whole phase mice will be fed with a 60% high fat diet from Research Diets (D12492), and tap water will be provided ad libitum. Mice were fed and tested regularly for glucose tolerance test for their glucose tolerance and once they were glucose intolerant they were used for treatment.

ALT = test: STAM model of non-alcoholic steatohepatitis: plasma biochemistry (ALT); conditions: STAM NASH mice, 25 μg per mouse SC once weekly 4-9 wks of age, sacrifice 9 wks; n = 6
Experimental: NASH was induced in 12 male mice by a single subcutaneous injection of 200 μg streptozotocin (STZ, Sigma-Aldrich, USA) solution 2 days after birth and feeding with high fat diet (HFD, 57 kcal % fat, Cat #HFD32, CLEA Japan, Inc., Japan) after 4 weeks of age. The peptide was administered subcutaneously in the adipose tissue in a volume of […] per mouse. The peptide was administered at a dose of 25 microgram (μg) per mouse once weekly. For plasma biochemistry, non-fasting blood was collected in polypropylene tubes with anticoagulant (Novo-Heparin, Mochida Pharmaceutical Co. Ltd., Japan) and centrifuged at 1,000×g for 15 minutes at 4° C. The supernatant was collected and stored at −80° C. until use. Plasma ALT level was measured by FUJI DRI-CHEM 7000 (Fujifilm, Japan). Six NASH mice were subcutaneously in the adipose tissue administered vehicle supplemented with ADPIF peptide at a dose of […] per mouse once weekly from 4 to 9 weeks of age.

Question: With “VECTTREKEVLASLDKAAFLTQLHS (not fully specified (bridges)) [ADPIF, R and S carry the stapling, preferably 2-(7-octenyl)arginine and 2-(4-pentenyl)serine]” as the sequence, how does the “hepatic protein content of LOXL2” value (LOXL2) read?
Answer: more potent than PATAD; also recorded: significant decrease

Question: What about the “fibrotic depots / lesions in liver by transmitted electron microscopy” value [1] of the same sequence?
Answer: no longer detected; also recorded: No such fibrotic depots were found

Question: And the “hepatic expression level of fatty acid synthase (Fasn)” value [2]?
Answer: repressed; also recorded: significantly decreased

Question: And the “hepatic protein content of FABP4” value (FABP4)?
Answer: more potent than PATAD; also recorded: significantly reduced

Question: What about the “glucose tolerance test / prevention of hyperglycemia” value [3] of the same sequence?
Answer: better effect in glucose tolerance test than the PATAD peptide; also recorded: more active than PATAD peptide in preventing hyperglycemia

Question: And the “Plasma ALT (mean ± SD)” value (ALT)?
Answer: 54 ± 9 U/L
